The term TGI denotes the concentration giving total growth inhibition. The low end stands for greater sensitivity of the cells, the high end for lower sensitivity of the cells.

Some test systems named below: CCRF-CEM leukemia; HCC-2998 colon; LOX IMVI melanoma; MALME-3M melanoma; NCI-H226 lung; OVCAR-3 ovarian; PC-3 prostate; RXF 393 renal; SF-295 CNS; SN12C renal.
What all share (assay): DTP human tumour cell line panel, 48 h

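96-well plates; 48 h exposure; 5 concentrations. Endpoints by linear interpolation between flanking doses. Not reached: highest tested concentration assigned. TGI: total growth inhibition.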

Consider `CC1(C)CC2=C(Sc3ccccc3N2)C(=O)C1C(=O)C(=O)Nc1cc(Cl)ccc1Cl` (stereo not drawn), for which the total growth inhibition concentration (TGI) in the assay on CCRF-CEM leukemia, in the assay on HCC-2998 colon, in the assay with LOX IMVI melanoma, in the assay on MALME-3M melanoma, in the assay on NCI-H226 lung and with OVCAR-3 ovarian was greater than 100 µM throughout. The TGI in the assay with PC-3 prostate, with RXF 393 renal, in the assay on SF-295 CNS and with SN12C renal was greater than 100 µM each time.

On to `Cc1cc(S(=O)(=O)Nc2nc3ccccc3n2-c2ccccc2)c(S)cc1Cl`, for which the TGI in the assay with CCRF-CEM leukemia, with HCC-2998 colon, with LOX IMVI melanoma, with MALME-3M melanoma, in the assay with NCI-H226 lung and in the assay on OVCAR-3 ovarian was greater than 100 µM each time. Further, the TGI in the assay on PC-3 prostate, in the assay with RXF 393 renal and in the assay with SF-295 CNS was greater than 100 µM in each case.

For `CSCCCNC(=O)c1csc(-c2csc(CCNC(=O)CNC(=O)CNC(=O)CNC(=O)OC(C)(C)C)n2)n1`, the TGI in the assay on CCRF-CEM leukemia, in the assay with HCC-2998 colon, with LOX IMVI melanoma, in the assay with MALME-3M melanoma, in the assay with NCI-H226 lung and in the assay with OVCAR-3 ovarian was greater than 100 µM in each case. In addition, the TGI with PC-3 prostate, in the assay on RXF 393 renal, in the assay on SF-295 CNS and in the assay on SN12C renal was greater than 100 µM in each case.

As for `Cc1cc(C)c2c(=N)c3ccccc3n(CCCCCCO)c2n1`, the total growth inhibition concentration (TGI) in the assay on CCRF-CEM leukemia was found to be 9.64 µM; in the assay with HCC-2998 colon, 7.07 µM; in the assay on LOX IMVI melanoma, 5.17 µM; with MALME-3M melanoma, 5.95 µM; in the assay on NCI-H226 lung, 11.1 µM; with OVCAR-3 ovarian, 25.9 µM. Moreover, the TGI is 11.9 µM with PC-3 prostate, 14.2 µM in the assay on RXF 393 renal, 11.9 µM with SF-295 CNS and 7.55 µM in the assay on SN12C renal.

In the case of `COc1cc(OC)c2c(O)c(S(=O)(=O)c3ccc(C)cc3)c(=O)oc2c1`, the concentration for total growth inhibition (TGI) with CCRF-CEM leukemia, in the assay with HCC-2998 colon, in the assay with MALME-3M melanoma, in the assay with NCI-H226 lung, in the assay with OVCAR-3 ovarian and in the assay with PC-3 prostate was greater than 100 µM in each case. For the same compound, the total growth inhibition concentration (TGI) in the assay on RXF 393 renal, with SF-295 CNS and in the assay on SN12C renal was greater than 100 µM each time.

As for `Cc1nn(C(=O)c2ccncc2)c2c1C(c1cccc([N+](=O)[O-])c1)SC(N)=N2` (stereo not drawn), the total growth inhibition concentration (TGI) with CCRF-CEM leukemia, in the assay on HCC-2998 colon, with LOX IMVI melanoma, with MALME-3M melanoma, in the assay with NCI-H226 lung and in the assay with OVCAR-3 ovarian was greater than 10 µM in each case. The TGI in the assay on PC-3 prostate, in the assay on RXF 393 renal, with SF-295 CNS and in the assay with SN12C renal was greater than 10 µM throughout.

`COC1=CC(=O)c2c(O)c3c(c(O)c2C1=O)C[C@](C)(O)C[C@@H]3O`: the TGI was determined as 33.9 µM with CCRF-CEM leukemia; 10.7 µM with HCC-2998 colon; 10.1 µM in the assay with LOX IMVI melanoma; 2.59 µM in the assay with MALME-3M melanoma; 45.6 µM in the assay on NCI-H226 lung; 5.29 µM with OVCAR-3 ovarian. In addition, the concentration for total growth inhibition (TGI) was greater than 42.5 µM with PC-3 prostate, 17.3 µM in the assay on RXF 393 renal, 11.5 µM with SF-295 CNS and 13 µM with SN12C renal.

For `c1csc(-c2csc(-c3ccsc3)c2)c1`, the TGI in the assay with CCRF-CEM leukemia, in the assay with HCC-2998 colon, in the assay with LOX IMVI melanoma, with MALME-3M melanoma, with NCI-H226 lung and in the assay on OVCAR-3 ovarian was greater than 100 µM in each case. For the same compound, the total growth inhibition concentration (TGI) with PC-3 prostate, with RXF 393 renal, with SF-295 CNS and in the assay with SN12C renal was greater than 100 µM each time.

For `CSc1ncc2c(n1)-c1ccccc1OC2NC(C)(C)C` (stereo not drawn), the concentration for total growth inhibition (TGI) with CCRF-CEM leukemia was greater than 100 µM; in the assay on HCC-2998 colon, 87 µM; with LOX IMVI melanoma it was greater than 100 µM; in the assay on MALME-3M melanoma, greater than 100 µM; in the assay on NCI-H226 lung, greater than 100 µM; in the assay on OVCAR-3 ovarian, greater than 100 µM. In addition, the TGI in the assay with PC-3 prostate, in the assay on RXF 393 renal, in the assay on SF-295 CNS and with SN12C renal was greater than 100 µM each time.

On to `N#CC1(c2ccccc2)CCN(C2(c3ccccc3)CCCCC2)CC1`, for which the TGI in the assay with CCRF-CEM leukemia, in the assay with HCC-2998 colon, with LOX IMVI melanoma, with MALME-3M melanoma, in the assay on NCI-H226 lung and with OVCAR-3 ovarian was greater than 100 µM throughout. Further, the total growth inhibition concentration (TGI) in the assay on PC-3 prostate, in the assay with RXF 393 renal, with SF-295 CNS and with SN12C renal was greater than 100 µM throughout.

Regarding `COc1cc([C@H]2Oc3c(OC)cc(CCCO)cc3[C@@H]2CO)ccc1O`, the total growth inhibition concentration (TGI) with CCRF-CEM leukemia, with HCC-2998 colon, in the assay on LOX IMVI melanoma, with MALME-3M melanoma, in the assay on NCI-H226 lung and in the assay with OVCAR-3 ovarian was greater than 100 µM each time. Moreover, the TGI in the assay on PC-3 prostate, in the assay on RXF 393 renal, with SF-295 CNS and in the assay with SN12C renal was greater than 100 µM each time.

`C=CC(C)(C)c1cc([C@@H]2COc3cc(O)ccc3C2=O)c(O)c(O)c1OC`: the TGI in the assay with CCRF-CEM leukemia is greater than 100 µM; with HCC-2998 colon, greater than 100 µM; in the assay with LOX IMVI melanoma it was 66.8 µM; in the assay on MALME-3M melanoma it was 93.6 µM; in the assay on NCI-H226 lung, greater than 100 µM; with OVCAR-3 ovarian, 29.3 µM. Moreover, the total growth inhibition concentration (TGI) in the assay with PC-3 prostate was 34.7 µM; in the assay on RXF 393 renal, 21.1 µM; in the assay with SF-295 CNS, greater than 100 µM; in the assay on SN12C renal, 37.6 µM.

Take `CNC(=S)N/N=C(\C)c1nc2ncccc2[nH]1`: the TGI in the assay on CCRF-CEM leukemia was greater than 100 µM; with HCC-2998 colon, greater than 100 µM; in the assay with LOX IMVI melanoma it was greater than 100 µM; in the assay on MALME-3M melanoma, greater than 100 µM; in the assay on NCI-H226 lung, greater than 90.9 µM; with OVCAR-3 ovarian, 75.5 µM. Further, the concentration for total growth inhibition (TGI) in the assay with PC-3 prostate, in the assay with RXF 393 renal, in the assay on SF-295 CNS and in the assay with SN12C renal was greater than 100 µM each time.

Values taken from PubChem BioAssay (NCI).
